Source: US8796023B2, “Peptide nanostructures containing end-capping modified peptides and methods of generating and using the same” (Ramot at Tel-Aviv University Ltd., priority 2004, dated 2014)
Like-named read-outs stand apart in the source and are kept apart here. Residues, ends and D or L forms follow the SMILES beside them. *: point of attachment. Fmoc = O=C(OCC1c2ccccc2-c2ccccc21)*; Cbz = O=C(OCc1ccccc1)*; Boc = CC(C)(C)OC(=O)*

Tests used:
[1] = same conditions, per WO 2004/052773; cited from earlier work
[2] = Self-assembly of end-capping modified diphenylalanine peptides, viewed by SEM/TEM; type: physicochemical; conditions: for structures formed by self-assembly (morphology): HFIP stock diluted in ddH2O, SEM/TEM/AFM
Experimental: (§1) Materials—End capping modified diphenylalanine peptides, presented in Table 3 hereinbelow, were purchase from Bachem (Bubendorf, Switzerland). Fresh stock solutions of the peptides were prepared by dissolving the lyophilized form of the peptides in 1,1,1,3,3,3-hexafluoro-2-propanol (HFIP, Sigma) at a concentration of 100 mg/ml. To avoid any pre-aggregation, fresh stock solutions were prepared for each experiment. The cyclo-Phe-Phe peptide (Peptide 8) was dissolved in HFIP to a concentration of 25 mg/ml and was subjected to ultrasound until a clear solution was obtained. The peptides stock solutions were diluted into a final concentration of 2 mg/ml in ddH2O. The NH2-Phe-Phe-NH2 peptide (Peptide 3) was diluted into a final concentration of 10 mg/ml in ddH2O.
Scanning electron microscopy (SEM) —Immediately after dilution in ddH2O, peptide solution was allowed to dry at room temperature over glass cover slip and coated with gold. Scanning electron microscopy images were obtained using a JSM JEOL 6300 SEM operating at 5 kV.
Transmission Electron microscopy (TEM) —Samples were placed on a 200 mesh copper grid, covered by carbon stabilized formvar film. After 1 minute excess fluid was removed and the grid was thereafter negatively stained with 2% uranyl acetate in water. After 2 minutes, excess fluid was removed from the grid. The samples were viewed in JEOL 1200EX electron microscope operating at 80 kV.
High resolution transmission electron microscopy—Samples were viewed using a Philips Tecnai F20 Field Emission Gun electron microscope operating at 200 kV. EDX analysis was performed with EDAX detector.
High resolution scanning electron microscopy—HRSEM grids were viewed using a JSM-6700 field emission scanning electron microscope equipped with a cold field emission gun operating at 1 kV.

[3] = Atomic force microscope (AFM) imaging of the peptide nanostructures; type: physicochemical; conditions: tapping mode, deposited on mica
Experimental: Atomic Force Microscope (AFM) imaging—The peptide sample solution was diluted again in ddH2O to a concentration of 1 mg/ml. Then the peptide solution was placed on mica grade and dried in vacuum. Dried sample was analyzed using Molecular Imaging PicoSPM II system in tapping mode.

[4] = Fourier transform infrared spectroscopy of the self-assembled structures; type: physicochemical; conditions: FT-IR amide-I region
Experimental: Fourier Transform Infrared Spectroscopy—Infrared spectra were recorded using a Nicolet Nexus 470 FT-IR spectrometer with a deuterated triglycine sulfate (DTGS) detector. Peptide solution taken from the abovementioned SEM assays were deposited on a CaF2 plate and dried under reduced pressure. The peptide deposits were resuspended with D2O and subsequently dried to form thin films. The resuspension procedure was repeated twice to ensure maximal hydrogen to deuterium exchange. The measurements […] a 4 cm^−1 resolution and averaging of 2000 scans. The transmittance minimal values were determined by the OMNIC analysis program (Nicolet).

[5] = Dissolving the peptides for stock solutions; type: physicochemical; conditions: in water or in fluoroalcohols
Experimental: as §1

Molecule | structures formed by self-assembly (morphology) [2] | molecular conformation of the self-assembled structures [4] | also measured
NC(Cc1ccccc1)C(=O)NC(Cc1ccccc1)C(=O)O (stereo not drawn) [Peptide 1, NH2-Phe-Phe-COOH] (H-Phe-Phe-OH; configuration not given here) | – | – | structures formed by self-assembly (morphology) [1]: formation of nanotubes
CC(=O)NC(Cc1ccccc1)C(=O)NC(Cc1ccccc1)C(N)=O (stereo not drawn) [Peptide 2, Ac-Phe-Phe-NH2] (Ac-Phe-Phe-NH2; configuration not given here) | organized and regular tubular structures | β-sheet conformation | diameters of the tubular structures ([2]; SEM, within minutes after dilution of peptide stock into aqueous solution): few microns to less than 100 nanometers; height of nanostructures at the Z-range [3]: about 100 nm
NC(=O)C(Cc1ccccc1)NC(=O)C(N)Cc1ccccc1 (stereo not drawn) [Peptide 3, NH2-Phe-Phe-NH2] (H-Phe-Phe-NH2; configuration not given here) | tubular structures | antiparallel β-sheet conformation | –
CC(=O)NC(Cc1ccccc1)C(=O)NC(Cc1ccccc1)C(=O)O (stereo not drawn) [Peptide 4, Ac-Phe-Phe-COOH] (Ac-Phe-Phe-OH; configuration not given here) | – | – | dissolution [5]: did not dissolve
CC(C)(C)OC(=O)NC(Cc1ccccc1)C(=O)NC(Cc1ccccc1)C(=O)O (stereo not drawn) [Peptide 5, Boc-Phe-Phe-COOH] (Boc-Phe-Phe-OH; configuration not given here) | highly ordered tubular structures | α-helix conformation | –
cyclo-Phe-Phe [Peptide 8] | bundles of tubular structures | either an α-helix or a β-turn conformation | –

The next lines start with results.

structures formed by self-assembly (morphology) [2] | molecular conformation of the self-assembled structures [4] | Molecule | also measured
fibrillar structures | – | O=C(NC(Cc1ccccc1)C(=O)NC(Cc1ccccc1)C(=O)O)OCC1c2ccccc2-c2ccccc21 (stereo not drawn) [Peptide 6, Fmoc-Phe-Phe-COOH] (Fmoc-Phe-Phe-OH; configuration not given here) | –
fibrillar structures | antiparallel β-sheet conformation | O=C(NC(Cc1ccccc1)C(=O)NC(Cc1ccccc1)C(=O)O)OCc1ccccc1 (stereo not drawn) [Peptide 7, Cbz-Phe-Phe-COOH] (Cbz-Phe-Phe-OH; configuration not given here) | –
